# Laboratory results as given in patent US20210046139A1, “VEGETATION WATERS AND USES THEREOF” (FATTORIA LA VIALLA DI GIANNI, ANTONIO E BANDINO LO FRANCO - …, priority 2018, published 2021).
# Marks after values point to notes of the source that are not given here.
# Experiments:
# STZ diabetic rats = assay: Thiobarbituric acid reactive substances (TBARS) in plasma and kidney; assay type: in vivo, Sprague-Dawley rats; conditions: 50 mg/kg/day, 5 weeks, mean ± S.E.
# Excerpt: A well-established model of streptozotocin (STZ)-induced diabetes in rats was used. Streptozotocin is a glucosamine derivative of nitrosurea which selectively destroys the β cells of the pancreatic islets and causes the development of diabetes with hyperglycemia and glycosuria. The model shares a series of characteristics with human diabetic complications at both a functional level and a biochemical level, such as, for example, a reduced nervous conduction, loss of small-diameter sensory nerve fibers in the skin, reduction in Na+ and K+-ATPase activity and early alterations of the thermal and mechanical nociceptive thresholds. In this study, diabetes was induced in 24 rats with a single intraperitoneal injection of 60 mg/kg of STZ dissolved in a sodium citrate buffer (pH 4.5). 24 rats injected only with the vehicle were used as non-diabetic controls. Hyperglycemia was confirmed by measuring glycosuria 72 hours after the injection of STZ using Keto-Diabur strips (KD-5000; Roche Diagnostics Spa, Italy). Only the animals with glycosuria >5% were classified as diabetic and included in the study. […] The levels of TBARS were determined as an indicator of the production of reactive oxygen species. […] The upper phase was measured using fluorimetry, (Infinite M200; Tecan, Milan, Italy) at an excitation wavelength of 532 nm and emission wavelength of 553 nm. […]
# [1] = Body weight, daily food and water intake in STZ diabetic and control rats; assay type: in vivo, Sprague-Dawley rats; conditions: 5 weeks; for BODY WEIGHT: 50 mg/kg/day (HT equivalent) in drinking water; for BODY WEIGHT / FOOD INTAKE: mean ± S.E.; for WATER INTAKE / FOOD INTAKE: 50 mg/kg/day
# Excerpt: Use was made of 48 male Sprague-Dawley rats (Harlan, Italy) with a weight comprised from 180-200 g. A well-established model of streptozotocin (STZ)-induced diabetes in rats was used. Streptozotocin is a glucosamine derivative of nitrosurea which selectively destroys the β cells of the pancreatic islets and causes the development of diabetes with hyperglycemia and glycosuria. The model shares a series of characteristics with human diabetic complications at both a functional level and a biochemical level, such as, for example, a reduced nervous conduction, loss of small-diameter sensory nerve fibers in the skin, reduction in Na+ and K+-ATPase activity and early alterations of the thermal and mechanical nociceptive thresholds. In this study, diabetes was induced in 24 rats with a single intraperitoneal injection of 60 mg/kg of STZ dissolved in a sodium citrate buffer (pH 4.5). 24 rats injected only with the vehicle were used as non-diabetic controls. Hyperglycemia was confirmed by measuring glycosuria 72 hours after the injection of STZ using Keto-Diabur strips (KD-5000; Roche Diagnostics Spa, Italy). Only the animals with glycosuria >5% were classified as diabetic and included in the study. […] The animals were then randomized to receive the concentrate of the invention at an HT equivalent dose of 50 mg/kg/day or 50 mg/kg/day of pure HT in drinking water, according to the following treatment groups: The daily dose of compounds was administered starting from the 7th week after the injection of STZ or the vehicle. The treatment lasted 5 weeks and urine samples were taken. The animals were then sacrificed and the plasma, kidneys and sciatic nerves were removed. The sacrifice took place within 2 hours after the last administration of the concentrate, HT or the vehicle. During the trial, the rats were weighed weekly to monitor their weight gain/loss. Hyperglycemia was confirmed in every rat by measuring the glucose level in the blood taken from the vein of the tail with a suitable apparatus (Glucomen, Menarini, Italy), 15 days after the injection of STZ. A plasma glucose level above 300 mg/dL was defined as the hyperglycemia threshold for defining the animals as diabetics.
# [2] = non-diabetic control rats (CTRL)
compound,measurement,setting,value
"OCCc1ccc(O)c(O)c1 [HT, hydroxytyrosol]",PLASMA TBARS,STZ diabetic rats; STZ diabetic rats,12.1 ± 1.2 nmol/mL
same,PLASMA TBARS,STZ diabetic rats; [2],4.3 ± 0.5 nmol/mL
same,BODY WEIGHT,[1]; STZ diabetic rats,216.6 ± 13.0 g
same,WATER INTAKE,[1]; STZ diabetic rats,170.1* ml/24 h
same,FOOD INTAKE,[1]; STZ diabetic rats,33.3 ± 3.7 g/24 h
same,BODY WEIGHT,[1]; [2],450.4 ± 16.4 g
same,WATER INTAKE,[1]; [2],69.5 ml/24 h
same,FOOD INTAKE,[1]; [2],20.6 ± 0.9 g/24 h
